Drawing on US11530206B2, “Phenylaminopyrimidine amide autophagy inhibitors and methods of use thereof” (Deciphera Pharmaceuticals, LLC, priority 2019, dated 2022), this text covers IC50 for 12 compounds.

Test [1] concerns ULK kinase. Description: pATG13 levels of mutant KRas A549 cells after treatment with ULK inhibitors in combination with trametinib (ELISA). To be noted: A549 (KRAS mutant) lung cancer cells, 250 nM trametinib, overnight, pS318-ATG13. It counts as cell-based, human. In outline: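 Lysates with phosphatase/protease inhibitors assayed by pATG13 ELISA, A450 minus A540 background and blank-corrected. % ATG13 phosphorylation versus DMSO controls fitted to IC50.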
For orientation: An ELISA detects its analyte on a solid surface through an enzyme-linked reagent.

A further test has as its target T1, LRRK2 kinase (Homo sapiens, UniProt Q5S007).
T1 construct: purchased Thermo Fisher
Description: Biochemical assay for LRRK2 (coupled pyruvate kinase/lactate dehydrogenase assay). To be noted: 26.4 nM LRRK2 (residues 970-2528), peptide substrate, 1 mM ATP. In outline: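 Recombinant LRRK2 (26.4 nM) with 0.1 mM peptide substrate and 1 mM ATP in Tris pH 7.5/MgCl2 buffer; ADP production coupled via PK/LDH to NADH oxidation, A340 read continuously 6 h at 30 °C. Rates from 2–3 h window converted to % inhibition versus no-compound and reference-inhibitor controls; IC50 fitted.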

Test [2] relates to ULK kinase. Description: pATG13 levels of mutant HRas T24 cells after treatment with ULK inhibitors in combination with trametinib (ELISA). To be noted: T24 urinary bladder cancer cells (mutant HRas), 250 nM trametinib, overnight, pS318-ATG13. The format is cell-based, human. On the procedure:
T24 human urinary bladder cancer cells (25000 cells/well) were added to a 96-well tissue-culture treated plate in 100 μL of pre-warmed DMEM medium supplemented with 10% characterized fetal bovine serum (Invitrogen, Carlsbad, Calif.), 100 units/mL penicillin G, and 100 μg/mL streptomycin and allowed to grow overnight at 37° C., 5% CO2, and 95% humidity. The following day, 100 μL of media containing trametinib or DMSO as a control was added to wells. […] A dose response of a test compound (0.5 μL per well) was added. DMSO (0.5 μL) was added to control wells. The plate was briefly shaken to mix wells and then incubated at 37° C. overnight. The next day, the media was aspirated and cells were washed with Dulbecco's Phosphate Buffered Saline (Gibco). Cells were lysed using MPER lysis buffer (Pierce, Rockford, Ill.) containing Halt Phosphatase and Protease Inhibitors (Pierce, Rockford, Ill.) and Phosphatase inhibitor cocktail 2 (Sigma, St. Louis, Mo.) at 4° C. for 10 minutes with shaking.
Plate wells were washed with ELISA wash buffer. Cell lysate was added to wells and incubated at room temperature for 2 hours. Plate wells were washed with ELISA wash buffer. […] Plate wells were washed with ELISA wash buffer. […] Plate wells were washed with ELISA wash buffer. […] The reaction was stopped with 2N Sulfuric Acid. The plate was analyzed at on a plate reader measuring absorbance at 450 nm and 540 nm (background). Signal was calculated by first subtracting the background absorbance at 540 nm from the absorbance at 450 nm for each well. Next, the background corrected absorbance at 450 nm from blank wells was subtracted from test wells. Data was compared to control wells to determine % ATG13 phosphorylation. GraphPad Prism was used to calculate IC50 values.

Test [3] concerns ULK kinase. Description: pATG13 levels of mutant KRas MiaPaCa-2 cells after treatment with ULK inhibitors in combination with trametinib (ELISA). The format is cell-based, human. To be noted: MiaPaCa-2 pancreatic cancer cells, 250 nM trametinib, overnight, pS318-ATG13. In outline: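 MiaPaCa-2 cells in DMEM with 10% FBS and 2.5% horse serum were pretreated with trametinib or DMSO, then given a test-compound dose response overnight at 37° C. Lysates were assayed for phospho-ATG13 by ELISA (A450 minus A540 background, blank-corrected). % phosphorylation was calculated relative to controls and fitted to IC50.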

What is called IC50 is the midpoint of a concentration-inhibition curve.

T1 sequence (Q5S007 with tags, fused parts or gaps): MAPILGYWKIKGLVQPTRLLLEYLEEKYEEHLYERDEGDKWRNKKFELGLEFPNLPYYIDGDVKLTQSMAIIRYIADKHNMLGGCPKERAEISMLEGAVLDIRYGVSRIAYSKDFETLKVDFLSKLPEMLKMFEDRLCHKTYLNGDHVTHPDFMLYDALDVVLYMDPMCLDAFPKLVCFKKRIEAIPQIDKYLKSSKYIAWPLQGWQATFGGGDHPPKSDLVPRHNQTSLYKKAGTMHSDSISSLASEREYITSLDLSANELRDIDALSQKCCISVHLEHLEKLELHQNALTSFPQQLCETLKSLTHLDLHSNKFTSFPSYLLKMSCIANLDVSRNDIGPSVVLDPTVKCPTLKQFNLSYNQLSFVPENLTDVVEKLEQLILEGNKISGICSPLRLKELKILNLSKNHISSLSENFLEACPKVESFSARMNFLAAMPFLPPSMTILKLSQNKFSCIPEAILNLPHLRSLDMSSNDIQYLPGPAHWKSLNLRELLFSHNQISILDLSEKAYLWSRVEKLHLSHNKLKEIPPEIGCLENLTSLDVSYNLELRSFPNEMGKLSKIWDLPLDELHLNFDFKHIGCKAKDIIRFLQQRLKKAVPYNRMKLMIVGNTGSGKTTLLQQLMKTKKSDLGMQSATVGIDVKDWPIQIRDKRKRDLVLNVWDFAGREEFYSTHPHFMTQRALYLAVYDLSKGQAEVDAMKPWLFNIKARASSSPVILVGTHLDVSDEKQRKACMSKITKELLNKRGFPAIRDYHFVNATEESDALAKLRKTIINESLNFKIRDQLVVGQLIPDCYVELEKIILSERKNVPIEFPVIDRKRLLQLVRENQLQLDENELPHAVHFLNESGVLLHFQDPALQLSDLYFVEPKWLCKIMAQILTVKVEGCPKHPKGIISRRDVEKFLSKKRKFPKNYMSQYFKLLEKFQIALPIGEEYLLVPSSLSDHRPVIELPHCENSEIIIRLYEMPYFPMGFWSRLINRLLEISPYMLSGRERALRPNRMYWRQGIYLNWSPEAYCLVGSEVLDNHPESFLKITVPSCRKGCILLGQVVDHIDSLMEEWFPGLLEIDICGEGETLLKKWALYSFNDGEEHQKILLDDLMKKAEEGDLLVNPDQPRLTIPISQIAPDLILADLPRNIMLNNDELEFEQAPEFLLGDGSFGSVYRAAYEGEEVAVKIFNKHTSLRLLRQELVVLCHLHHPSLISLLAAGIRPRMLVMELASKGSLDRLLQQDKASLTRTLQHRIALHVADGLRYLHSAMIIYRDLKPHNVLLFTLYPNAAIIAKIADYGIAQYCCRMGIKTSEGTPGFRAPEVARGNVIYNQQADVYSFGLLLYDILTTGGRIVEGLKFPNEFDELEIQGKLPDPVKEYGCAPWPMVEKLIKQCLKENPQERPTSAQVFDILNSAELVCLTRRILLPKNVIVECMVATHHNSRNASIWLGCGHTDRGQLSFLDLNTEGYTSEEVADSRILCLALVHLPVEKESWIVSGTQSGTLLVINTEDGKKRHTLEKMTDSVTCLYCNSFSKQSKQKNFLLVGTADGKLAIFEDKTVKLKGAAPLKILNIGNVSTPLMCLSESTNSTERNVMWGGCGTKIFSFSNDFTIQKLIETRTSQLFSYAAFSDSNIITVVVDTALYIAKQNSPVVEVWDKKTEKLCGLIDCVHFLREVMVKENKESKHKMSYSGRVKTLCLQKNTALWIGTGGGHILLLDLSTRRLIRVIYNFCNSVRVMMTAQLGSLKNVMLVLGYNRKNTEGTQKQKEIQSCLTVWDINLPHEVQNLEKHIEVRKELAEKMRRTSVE

Consider `CN1CCN(c2ccc(Nc3ncc(C(F)(F)F)c(NCCCN4CCCCC4=O)n3)c(C3CC3)c2)CC1` [Example 14], for which the IC50 with ULK kinase [1] lay in the range of 10 to 100 nM; against LRRK2 kinase, 1 to 100 nM; in the test with ULK kinase [2], 10 to 100 nM; with ULK kinase [3] it was 10 to 100 nM.
Take `CCc1cc(N2CCN(C)CC2)ccc1Nc1ncc(C(F)(F)F)c(NCCCN2CCCOC2=O)n1` [Example 39]: the concentration for half-maximal inhibition (IC50) in the test with ULK kinase [1] is 10 to 100 nM; on LRRK2 kinase, 1 to 100 nM; with ULK kinase [2] it was 10 to 100 nM; with ULK kinase [3], 10 to 100 nM.
As for `CN1CCN(c2ccc(Nc3ncc(C(F)(F)F)c(NCCCN4CCCOC4=O)n3)c(C3CC3)c2)CC1` [Example 41], the IC50 was in the range of 10 to 100 nM in the test with ULK kinase [1], 1 to 100 nM against LRRK2 kinase, 10 to 100 nM in the test with ULK kinase [2] and 10 to 100 nM with ULK kinase [3].
As for `CCc1cc(N2CCNCC2)ccc1Nc1ncc(C(F)(F)F)c(NCCCN2CCCOC2=O)n1` [Example 46], the IC50 in the test with ULK kinase [1] was 10 to 100 nM; against LRRK2 kinase, 100 to 300 nM; with ULK kinase [2], 100 to 300 nM; with ULK kinase [3], 10 to 100 nM.
Take `CN1CCN(c2ccc(Nc3ncc(C(F)(F)F)c(NCCCN4CCCOCC4=O)n3)c(C3CC3)c2)CC1` [Example 52]: the half-maximal inhibitory concentration (IC50) fell in the range of 10 to 100 nM in the test on ULK kinase [1], 1 to 100 nM on LRRK2 kinase and 10 to 100 nM in the test on ULK kinase [3].
Regarding `CN1CCN(c2ccc(Nc3ncc(Cl)c(NCCCN4CCCOCC4=O)n3)c(C3CC3)c2)CC1` [Example 55], the IC50 with ULK kinase [1] was in the range of 100 to 300 nM; on LRRK2 kinase, 100 to 300 nM; in the test with ULK kinase [3], 10 to 100 nM.
Consider `CN1CCN(c2ccc(Nc3ncc(C(F)(F)F)c(NCCCN4CCOCCC4=O)n3)c(C3CC3)c2)CC1` [Example 70], for which the IC50 in the test with ULK kinase [1] fell in the range of 10 to 100 nM; on LRRK2 kinase, 1 to 100 nM; in the test on ULK kinase [2] it was 10 to 100 nM; in the test with ULK kinase [3] it was 10 to 100 nM.
In the case of `CCc1cc(N2CC3CCC(C2)N3C)ccc1Nc1ncc(C(F)(F)F)c(NCCCN2CCOCCC2=O)n1` [Example 74], the half-maximal inhibitory concentration (IC50) fell in the range of 10 to 100 nM with ULK kinase [1], 300 to 600 nM on LRRK2 kinase, 10 to 100 nM with ULK kinase [2] and 10 to 100 nM in the test with ULK kinase [3].
Take `CCc1cc(N2CCN(C)CC2)ccc1Nc1ncc(Br)c(NCCCN2CCOCCC2=O)n1` [Example 76]: the IC50 in the test on ULK kinase [1] lay in the range of 10 to 100 nM; against LRRK2 kinase, 100 to 300 nM; with ULK kinase [2], 10 to 100 nM; in the test on ULK kinase [3], 10 to 100 nM.
As to `CCc1cc(N2CCNCC2)ccc1Nc1ncc(C(F)(F)F)c(NCCCN2CCOCCC2=O)n1` [Example 84], the IC50 was 10 to 100 nM in the test on ULK kinase [1], 100 to 300 nM against LRRK2 kinase, 100 to 300 nM in the test on ULK kinase [2] and 10 to 100 nM in the test on ULK kinase [3].
With `CCc1cc(N2CCN(C)CC2)c(F)cc1Nc1ncc(C(F)(F)F)c(NCCCN2CCOCCC2=O)n1` [Example 86], the IC50 in the test with ULK kinase [1] lay in the range of 10 to 100 nM; at LRRK2 kinase, 1 to 100 nM; with ULK kinase [2], 100 to 300 nM; in the test with ULK kinase [3], 10 to 100 nM.
In the case of `O=C1OCCCN1CCCNc1nc(Nc2ccc(N3CCNCC3)cc2C2CC2)ncc1C(F)(F)F` [Example 99], the IC50 was in the range of 10 to 100 nM with ULK kinase [1], 1 to 100 nM against LRRK2 kinase, 100 to 300 nM in the test on ULK kinase [2] and 100 to 300 nM in the test with ULK kinase [3].
